Structures are written as SMILES.

This series is described as follows: gradient 5% acetonitrile 3 min, to 50% in 2 min, to 85% in 15 min, held 3 min, 100 µL/min. As to conditions: column: Zorbax Extend-C18 2.1 x 50 mm; eluents: water / acetonitrile, 0.1% formic acid. Summed up: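 Retention time was recorded from adduct peaks, which were picked computationally and each inspected manually. Pure standards ran in mixtures of ~100 molecules on HPLC coupled to a quadrupole time-of-flight mass spectrometer, in positive and negative ionization mode, through a Zorbax Extend-C18 column (2.1 × 50 mm, 1.8 μm) at 100 μL/min. Eluents were water and acetonitrile, each with 0.1% formic acid.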
`COc1ccc(C(C)NC(=O)CCc2nnc3c4cc(-c5ccc(F)cc5)nn4ccn23)cc1OC` (centres undefined) registered an RP-LC retention time of 722 s.
As to `CC(C)CC(=O)Nc1ccc2c(c1)nc(CN1CCOCC1)n2C(C)C`, the RP-LC retention time was found to be 630 s.
In the case of `CCn1ccc(C(=O)N2CCCN(C3=NS(=O)(=O)C(c4ccc(F)cc4)=C3C)CC2)n1` it was 759 s.
`O=C(Nc1cnc(N2CCCC2)nc1)c1ccc(F)cc1` displayed an RP-LC retention time of 710 s.
To `CCn1c(=O)c(C)nc2cc(-c3noc(-c4cc(OC)c(OC)c(OC)c4)n3)ccc21` belongs 919 s.
In turn, `O=C(C1CCN(c2cncnc2N2CCCCC2)CC1)N1CCCC1` had an RP-LC retention time of 554 s.
In the case of `O=C(NC1CCN(C(=O)C2CC2)C1)c1ccc(F)cc1` (centres undefined) it was 666 s; in that of `COc1ccccc1-n1c(SCC(=O)Nc2cc(C)on2)nc2c(c1=O)SCC2`, 728 s.
To `O=C(NCC1COc2ccccc2O1)C(=O)N1CCCCC1` (centres undefined) belongs 757 s; to `O=C(Cn1ccn2nc(-c3ccccc3)c(CO)c2c1=O)NC1CCCC1`, 721 s.
In the case of `O=C(Nc1nc(-c2ccccc2)cs1)c1sc2cc([N+](=O)[O-])ccc2c1Cl` it was 1260 s; in that of `O=S(=O)(c1cc(-c2nnc(C3CC3)o2)co1)N1CCc2ccccc2C1`, 946 s.
Consider `Oc1ccc(-c2nc3ncccn3c2Nc2ccc(Cl)cc2)cc1`, for which the RP-LC retention time is 666 s.
In the case of `O=C(NCC1CCCO1)c1cccc(Nc2c(-c3ccc(Cl)cc3)nc3cnccn23)c1` (centres undefined) it was 753 s.
To `Cc1cc(=O)n(CC(=O)Nc2ccc3c(c2)OCCO3)c(N2CCCC2)n1` belongs 620 s; to `CC(C)(C)OC(=O)Cn1cnc2c(-c3ccc(Br)cc3)csc2c1=O`, 1140 s.
In the case of `COC(=O)c1c[n+]([O-])ccc1OC` it was 603 s; in that of `O=C(NCc1ccccc1C(F)(F)F)C1CCN(c2cnc3nccnc3c2)CC1`, 747 s; in that of `CCC(CC)C(=O)N1C[C@H]2C[C@H](C1)[C@H]1CCCC(=O)N1C2`, 645 s.
In turn, `Cc1cc(C)n(-c2ccnc(N3CCC(C(=O)NCCN4CCOCC4)CC3)n2)n1` yielded an RP-LC retention time of 607 s.
`Cn1cc(CCNS(=O)(=O)c2ccc(F)cc2Cl)c2cccnc21` had an RP-LC retention time of 755 s.
To `Clc1ccccc1N1CCN(c2nccn3nc(-c4ccccc4)cc23)CC1` belongs 1330 s; to `CCCCC(=O)N(C)CC1CCOCC1`, 686 s; to `CCCn1ncc(N2CCC(C(=O)N3CCOCC3)CC2)cc1=O`, 619 s.
In the case of `C=CCn1ccc2c(OCC(=O)Nc3ccc4c(c3)OCO4)cccc2c1=O`, the RP-LC retention time was found to be 805 s.
To `CCc1ccc(CNC(=O)C2CCN(c3cncnc3N3CCN(C)CC3)CC2)cc1` belongs 588 s.
In the case of `CCCn1cc(S(=O)(=O)Nc2ccc(F)cc2C)c2cccnc21` it was 926 s; in that of `O=C(Cn1ccn2nc(-c3ccc(F)cc3)c(CO)c2c1=O)N1CCCC1`, 683 s; in that of `Cc1cc(C)c(S(=O)(=O)N2CCCC2c2nc(-c3ccccc3)no2)c(C)c1` (centres undefined), 1230 s.
In the case of `CC(C)N(CCCNC(=O)Cn1cc2c(n1)CCCCC2)Cc1ccccc1` it was 674 s.
In turn, `O=C(c1ccco1)N1CCN(c2nc(N3CCOCC3)c3n[nH]nc3n2)CC1` showed an RP-LC retention time of 598 s.
`COCc1cc(=O)n(CC(=O)NCc2ccccc2Cl)c(N)n1` displayed an RP-LC retention time of 619 s.
In turn, `O=c1[nH]c2ccc(NCc3ccccc3)cc2[nH]1` showed an RP-LC retention time of 571 s.
In the case of `O=C(Cn1cnc2nc(N3CCCC(C(=O)NC4CC4)C3)sc2c1=O)Nc1cc(F)ccc1F` (centres undefined) it was 693 s.
